Some test systems named below: HCT-116 colon; SR leukemia; CAKI-1 renal; M14 melanoma; T-47D breast; TK-10 renal; CCRF-CEM leukemia; HOP-92 NSCLC; LOX IMVI melanoma; BT-549 breast.
What all share (experiment): DTP human tumour cell line panel, 48 h

“And” between values parts separate entries of the source, which are not always exact repeats. Identical values can stand only once.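 A five-concentration, 48-hour dose response in 96-well plates underlies each endpoint, interpolated linearly between surrounding concentrations. GI50 = concentration required for 50% inhibition of growth. TGI marks complete inhibition of growth.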

As for `CN(C)S(=O)(=O)c1ccc(Nc2ccc(O)c3c2C(=O)c2c([N+](=O)[O-])ccc(O)c2C3=O)cc1`, the TGI in the experiment on HCT-116 colon, with SR leukemia, in the experiment on CAKI-1 renal, in the experiment with M14 melanoma, in the experiment with T-47D breast and with TK-10 renal was above 100 µM in each case. Moreover, the total growth inhibition concentration (TGI) in the experiment on CCRF-CEM leukemia was 44.9 µM; in the experiment with HOP-92 NSCLC it was above 100 µM; with LOX IMVI melanoma it was above 100 µM; with BT-549 breast, above 100 µM.

Take `COc1cc2ncn(-c3cc(OCc4ccccc4S(C)(=O)=O)c(C#N)s3)c2cc1OC`: the GI50 in the experiment with HCT-116 colon, in the experiment on SR leukemia, in the experiment on CAKI-1 renal, in the experiment on M14 melanoma, in the experiment with T-47D breast and in the experiment with TK-10 renal was above 25 µM each time. Also, the GI50 with CCRF-CEM leukemia was above 25 µM; in the experiment with HOP-92 NSCLC, above 14.2 µM; with LOX IMVI melanoma, above 25 µM; with BT-549 breast, above 25 µM. Besides, the total growth inhibition concentration (TGI) in the experiment on HCT-116 colon, with SR leukemia, in the experiment on CAKI-1 renal, in the experiment with M14 melanoma, in the experiment with T-47D breast and in the experiment with TK-10 renal was above 25 µM each time. The TGI in the experiment with CCRF-CEM leukemia, with HOP-92 NSCLC, in the experiment on LOX IMVI melanoma and in the experiment on BT-549 breast was above 25 µM throughout.

On to `CN1CCC(n2[nH]c(-c3ccccc3)c(Cc3ccccc3)c2=O)CC1`, for which the TGI with HCT-116 colon, with SR leukemia, with CAKI-1 renal, in the experiment with M14 melanoma, with T-47D breast and with TK-10 renal was above 100 µM in each case. The concentration for total growth inhibition (TGI) in the experiment on CCRF-CEM leukemia, in the experiment on HOP-92 NSCLC, with LOX IMVI melanoma and in the experiment with BT-549 breast was above 100 µM in each case.

Take `COc1cc(-c2n/c(=C\c3c(O)[nH]c4ccccc34)cc3c2=Nc2ccccc2-3)cc(OC)c1OC`: the 50% growth inhibitory concentration (GI50) in the experiment with HCT-116 colon is 0.392 µM; with SR leukemia it was 0.692 µM; in the experiment with M14 melanoma it was 0.785 µM; in the experiment on T-47D breast, 1.14 µM; with TK-10 renal, 2.18 µM; in the experiment with CCRF-CEM leukemia, 1.12 µM. For the same compound, the GI50 was 0.385 µM in the experiment with HOP-92 NSCLC, 0.552 µM in the experiment on LOX IMVI melanoma and 0.486 µM in the experiment with BT-549 breast. The concentration for total growth inhibition (TGI) with HCT-116 colon was 2.44 µM; in the experiment with SR leukemia it was above 29.1 µM; in the experiment on CAKI-1 renal it was above 100 µM; in the experiment with M14 melanoma, 4.26 µM; with T-47D breast, above 22.5 µM; with TK-10 renal, 25 µM. The TGI in the experiment on CCRF-CEM leukemia is above 100 µM; in the experiment on HOP-92 NSCLC, 6.28 µM; with LOX IMVI melanoma it was above 100 µM; with BT-549 breast, 2.47 µM.

For `COC(=O)[C@]12CC=C3O[C@@H]4OC5(CCCCC5)O[C@@H]4[C@H]3C1C(=O)C=CC2=O` (stereo partly drawn), the TGI is 32.4 µM in the experiment on HCT-116 colon; above 76.8 µM with SR leukemia; 30.4 µM in the experiment on CAKI-1 renal; 32 µM in the experiment on M14 melanoma; 42.5 µM in the experiment on T-47D breast; 31.4 µM in the experiment on TK-10 renal. The TGI in the experiment on CCRF-CEM leukemia was 14.3 µM; with HOP-92 NSCLC, 33.1 µM; in the experiment on LOX IMVI melanoma, 35.2 µM; in the experiment with BT-549 breast, 34.5 µM.

Regarding `Cc1cc2nc3c4cccc(O)c4n(CCN(C)C)c3nc2cc1C`, the GI50 is 1.49 µM in the experiment with HCT-116 colon; 0.767 µM with SR leukemia; 1.35 µM with CAKI-1 renal; 1.63 µM in the experiment on M14 melanoma; 3.8 µM with T-47D breast; 4.37 µM with TK-10 renal. Also, the GI50 with CCRF-CEM leukemia is 1.57 µM; with HOP-92 NSCLC it was 1.57 µM; in the experiment with LOX IMVI melanoma it was 1.24 µM; in the experiment on BT-549 breast, 5.38 µM. Moreover, the total growth inhibition concentration (TGI) in the experiment on HCT-116 colon is 7.97 µM; with SR leukemia it was 7.03 µM; with CAKI-1 renal, 3.89 µM; in the experiment with M14 melanoma, 3.43 µM; in the experiment with T-47D breast it was 27.9 µM; in the experiment on TK-10 renal, 19.8 µM. Further, the total growth inhibition concentration (TGI) in the experiment on CCRF-CEM leukemia was 6.25 µM; with HOP-92 NSCLC it was 7.58 µM; in the experiment with LOX IMVI melanoma it was 2.6 µM; in the experiment on BT-549 breast it was 32.8 µM.

Regarding `CO/C(=N\N=C\c1cccc(C(F)(F)F)c1)c1ccncc1`, the concentration for total growth inhibition (TGI) is above 100 µM in the experiment with HCT-116 colon; 46.3 µM with SR leukemia; 9.48 µM with CAKI-1 renal; 94.4 µM with M14 melanoma; above 100 µM in the experiment on T-47D breast; above 100 µM in the experiment with TK-10 renal. The concentration for total growth inhibition (TGI) in the experiment on CCRF-CEM leukemia was 84.1 µM; with HOP-92 NSCLC, above 100 µM; with LOX IMVI melanoma it was above 100 µM; in the experiment on BT-549 breast it was 68 µM. Further, the GI50 in the experiment with SR leukemia was 3.33 µM; in the experiment on CCRF-CEM leukemia, 3.71 µM; in the experiment with LOX IMVI melanoma it was 10.2 µM; with BT-549 breast, 8.78 µM.

`COc1ccc(-n2c(C)nc3c(c(C)nn3-c3ccccc3)c2=O)cc1`: the GI50 in the experiment on HCT-116 colon was 0.0443 µM; with SR leukemia, 0.0391 µM; with CAKI-1 renal it was 0.0461 µM; with M14 melanoma, 0.0491 µM; in the experiment with T-47D breast, 0.0403 µM; in the experiment on TK-10 renal, 9.02 µM. Also, the GI50 with CCRF-CEM leukemia was 0.057 µM; with HOP-92 NSCLC it was 0.433 µM; with LOX IMVI melanoma, 0.065 µM; in the experiment on BT-549 breast it was 0.123 µM. The concentration for total growth inhibition (TGI) in the experiment on HCT-116 colon was 7.91 µM; in the experiment on SR leukemia, above 58.7 µM; in the experiment on CAKI-1 renal, above 50.1 µM; in the experiment on M14 melanoma, above 100 µM; in the experiment with T-47D breast, 72.5 µM; in the experiment on TK-10 renal it was above 100 µM. In addition, the TGI with CCRF-CEM leukemia was above 100 µM; in the experiment on HOP-92 NSCLC, 29.3 µM; with LOX IMVI melanoma, above 100 µM; with BT-549 breast, 33.8 µM.

Regarding `C[C@@H]1COC(Nc2ccc3ncnc(Nc4ccc(OCc5nccs5)c(Cl)c4)c3c2)=N1`, the GI50 in the experiment with HCT-116 colon was 3.94 µM and 4.75 µM; with SR leukemia it was 6.79 µM and 3.97 µM; in the experiment with CAKI-1 renal it was 2.24 µM and 0.685 µM; with M14 melanoma, 3.16 µM and 4.12 µM; in the experiment with T-47D breast, 0.286 µM and 1.03 µM; in the experiment with TK-10 renal, 0.235 µM and 0.259 µM. Further, the GI50 was 3.55 µM and 3.46 µM in the experiment with CCRF-CEM leukemia; 0.633 µM and 0.782 µM in the experiment with HOP-92 NSCLC; 3.73 µM and 4.31 µM in the experiment with LOX IMVI melanoma; 3.65 µM and 3.28 µM in the experiment with BT-549 breast. Besides, the total growth inhibition concentration (TGI) in the experiment on HCT-116 colon is > 10 µM and 19 µM; with SR leukemia, > 10 µM and 21.9 µM; in the experiment on CAKI-1 renal, > 10 µM and 15.1 µM; with M14 melanoma it was > 10 µM and 16.9 µM; with T-47D breast, > 10 µM and 12.5 µM; in the experiment with TK-10 renal, > 10 µM and 14.8 µM. Further, the TGI in the experiment with CCRF-CEM leukemia is above 80.9 µM; in the experiment on HOP-92 NSCLC, 8.43 µM and 5.68 µM; with LOX IMVI melanoma it was > 10 µM and 17 µM; in the experiment on BT-549 breast, > 10 µM and 12.4 µM.

For the origin of these results see PubChem BioAssay (NCI).
